Measured values as given in patent publication US20160317473A1, “METHODS OF TREATING OR PREVENTING BRAIN DAMAGE DUE TO HYPOXIC-ISCHEMIA” (EMORY UNIVERSITY, priority 2014, published 2016).
Entries after “also recorded” stand apart in the source; their conditions may differ.

Key:
[1] = test system: microglia and monocytes in CX3CR1-GFP; CCR2-RFP mice; test: ICV injection of LPS in P10 CX3CR1-GFP; CCR2-RFP mice; assay type: in vivo; conditions: 24 h after ICV LPS 1 μg; FTY720 1 μg/g
Experimental: In untouched mice, few GFP+ microglial processes extended into the pyramidal cell layer in the hippocampal (CA), and almost no RFP+ monocytes were detected in the brain.
(§1) Experiments herein indicate FTY720 primarily blocks brain influx of leukocytes to prevent LPS/HI-induced neuroinflammation. […] To distinguish between these two scenarios, the effects of FTY720 was tested on the MCP1 induction following cerebral ventricle-injection of LPS, a paradigm of direct microglial activation. […] Intracerebroventricular (ICV) injection of LPS was performed in bitransgenic CX3CR1-GFP; CCR2-RFP mice, in which the microglia and circulating monocytes are marked by the green and red fluorescence protein, respectively. In unchallenged mice, the brains were largely devoid of monocytes and the microglial processes were excluded from the hippocampal pyramidal cell layer.

[2] = test system: LPS/HI-injured P7 rat pups; test: LPS-sensitized HI (LPS/HI) brain injury model in P7 rats; assay type: in vivo
Experimental: To test whether intrauterine infection accelerates the development of TH17 lymphocytes, the expression of IL-23 receptor (IL-23R) mRNA, a marker of TH17 cells, was compared in aliquots of cord blood mononuclear cells isolated from late preterm neonates (32-36 gestational weeks) with and without histological chorioamnionitis. […] A well-characterized LPS-sensitized HI brain injury model in P7 rats was used to compare the effects of low-dose LPS (0.3 mg/kg, IP), HI, and combined LPS/HI on the expression of IL-23R mRNA in the peripheral blood mononuclear cells.
The effects of FTY720 administration (1 μg/g, IP) after LPS/HI insult in P7 rat pups were examined.
(§2) Flow cytometry we used to compare the percentage of CD4+ IL-17A+T-cells at 24 h after LPS, HI (90 min), or LPS+80 min HI brain injury. A longer duration of pure-HI insult was chosen because 80-min HI produced milder brain damage and little neuroinflammation. The TH17/IL-17 activity was compared under pure-HI (90 min) and LPS/HI (80 min) insults that produce similar levels of brain injury. […] The dual LPS/HI insult led to a significant increase to 21% of CD4+ IL-17A+ T-cells, which was reduced to 12% by FTY720 treatment (FIG. 3A).
(§3) Whether (p)FTY720 exerts direct neuroprotection was investigated. The effects of FTY720 on pure-HI (90 min) and LPS-sensitized HI insult (80 min) were compared reasoning that FTY720 should oppose both insults if its benefits are derived primarily from neuronal protection. Of note, because 80 min pure-HI insult caused little brain damage, a longer duration of pure-HI (90 min) we used in this experiment.
Magnetic resonance imaging (MRI) and behavioral testing were used to assess both acute and long-term effects of FTY720 treatment in LPS/HI injury. […] Two weeks later, the TBSS-identified at-risk gray and white matter became atrophic or distorted in saline-treated rat pups.

[3] = test system: pure-HI injured rat pups; test: pure-HI (90 min) brain injury in rat pups; assay type: in vivo
Experimental: as §2, §3

[4] = test system: microglial activation in P7 rats; test: intracerebroventricular (ICV) injection of LPS in P7 rats, model of direct microglial activation; assay type: in vivo, rat; conditions: FTY720 1 μg/g IP; LPS 2 μg ICV
Experimental: as §1

[5] = test system: SM826 microglial cells; test: LPS-induced activation of immortalized microglia SM826 cells; assay type: cell-based
Text: These in-vivo and in-vitro results argued against direct inhibition of microglia by FTY720, which prompted us to examine the expression of S1P receptor isoforms in neonatal rat microglia. […] Thus, the effects of pFTY720 and S1P on LPS-induced expression of IL-23 (a key factor for TH17 cell differentiation), TNFα (Tumor Necrosis Factor-alpha), and iNOS mRNA were compared. […] Finally, the effects of S1P and Tat-NBD, an anti-NFKB peptide, were compared on the intracellular signaling responses to LPS in immortalized microglial cells.

[6] = test system: LPS/HI-injured P10 mice; test: LPS/HI injury in P10 mice; assay type: in vivo; conditions: two doses of 25 mg/kg, 16 h pre- & 1 h post-LPS/HI
Experimental: An experiment was performed to test the effects of SR1001, a small-molecule inhibitor of RORc, in LPS/HI injury in P10 mice.

[7] = molecular target: S1PR2 (Homo sapiens, UniProt O95136); conditions: Mandala et al., 2002; cited from earlier work
Chain of S1PR2 (O95136 whole entry, species assumed): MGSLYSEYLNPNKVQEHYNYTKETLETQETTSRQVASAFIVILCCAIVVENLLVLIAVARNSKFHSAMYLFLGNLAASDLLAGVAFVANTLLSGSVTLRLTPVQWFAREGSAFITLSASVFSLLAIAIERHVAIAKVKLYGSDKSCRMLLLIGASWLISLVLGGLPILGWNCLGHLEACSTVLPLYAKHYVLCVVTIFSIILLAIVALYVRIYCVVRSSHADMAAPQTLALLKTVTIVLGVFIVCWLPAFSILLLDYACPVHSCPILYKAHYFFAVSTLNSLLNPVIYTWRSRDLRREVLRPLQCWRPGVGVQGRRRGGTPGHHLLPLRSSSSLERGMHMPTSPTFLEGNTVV

CCCCCCCCc1ccc(CCC(N)(CO)CO)cc1 [FTY720, 2-amino-2-[2-(4-octylphenyl)ethyl]propane-1,3-diol]
microglial processes in hippocampal pyramidal cell layer and monocytes in the brain [1]: showed intrusion of hypertrophic microglia processes in the hippocampal pyramidal cell layer and a massive influx of monocytes; also recorded: hypertrophic microglial processes extended into the pyramidal cell layer and a large number of monocytes were found in the brain | LPS/HI-induced MCP1 expression in the brain (ELISA) ([2]; 18-24 h following LPS/HI): markedly reduced; also recorded: significant attenuation | LPS/HI-induced MCP1 in the plasma (ELISA) ([2]; 18-24 h following LPS/HI): failed to prevent | post-LPS/HI induction of TSPO mRNA (marker for activated microglia) ([2]; 18-24 h following LPS/HI): markedly reduced | ribbon-like CD43 immunoreactivity in the ipsilateral choroid plexus ([2]; 4 h after LPS/HI): preserved; also recorded: less pronounced | IL-23R mRNA levels in peripheral blood mononuclear cells (normalized to actin) ([2]; 4 h after LPS/HI, FTY720 1 μg/g IP): blocked the increase | influx of CD43+ leukocytes in choroid plexus / ipsilateral subcortical white matter ([2]; 4 h post-LPS/HI): mitigated the influx; also recorded: absence of CD43+ cells; also recorded: not in the contralateral hemisphere or after the FTY720 treatment | nuclear NF-κB activity (EMSA, brain nuclear extract) ([2]; 4 h recovery from LPS/HI): greatly reduced; also recorded: prevented the high-order DNA-protein complex | reduction/degradation of cytoplasmic IκBα in the ipsilateral hemisphere ([2]; 4 h recovery from LPS/HI): greatly reduced; also recorded: averted | BBB permeability (NaF fluorescence / extravasation) ([2]; 24 h after LPS/HI): markedly attenuated; also recorded: significantly reduced | MMP9 induction/activity in ipsilateral hemisphere (zymogram) ([2]; 24 h after LPS/HI): diminished; also recorded: absence of MMP9 induction | ADC (apparent diffusion coefficient) signals in the cerebral cortex (MRI) ([2]; 24 h after LPS/HI, vs saline): mitigated; also recorded: significant preservation | increase of brain MCP1 protein (cytokine array) ([2]; 24 h after LPS/HI, 9.7-fold without treatment): 3 fold | brain cytoarchitectural distinctions in the ipsilateral hemisphere (MEMRI) ([2]; 24 h post-LPS/HI): preserved | increased sodium concentration in the ipsilateral hemisphere (sodium MRI) ([2]; 24 h recovery): mitigated | CD43+ leukocytes in the cortical gray matter ([2]; 24 h recovery after LPS/HI): absent | accumulation of CD43+ leukocytes in the leptomeningeal space ([2]; 24 h recovery after LPS/HI): prevented the accumulation | latency to fall on rotarods ([2]; 24 days of age after LPS/HI): near-normal | brain atrophy ([2]; LPS/HI injury): dose-dependent reduction | LPS/HI-induced brain Gata3 mRNA ([2]; RT-PCR): not | LPS/HI-induced brain IL-13 mRNA ([2]; RT-PCR): not | LPS/HI-induced brain IL-17A mRNA ([2]; RT-PCR): significantly decreased | LPS/HI-induced brain IL-23 receptor mRNA ([2]; RT-PCR): significantly decreased | LPS/HI-induced brain RORc mRNA ([2]; RT-PCR): significantly decreased | LPS/HI-induced brain Tbx21/T-bet mRNA ([2]; RT-PCR): significantly attenuated; also recorded: significantly decreased | gain in body weight ([2]; by 24 days of age after LPS/HI): near-normal gain | impairment of neonatal development ([2]; rat, in vivo): does not impair neonatal development | LPS/HI-induced tissue loss salvaged in the hippocampus and the cerebral cortex ([2]; treatment started within 30 min after injury): > 90% | HI-induced MMP9 activation in ipsilateral cortical hemisphere (zymogram) ([3]; 24 h recovery, pure-HI): failed to prevent | brain atrophy / injury after pure-HI ([3]; pure-HI 90 min, acute FTY720 treatment): failed to prevent; also recorded: ineffective | worsening of pure-HI brain injury ([3]; rat, in vivo): does not impair neonatal development or worsen pure-HI brain injury | induction of MCP1 after ICV injection of LPS [4]: unable to prevent

CCCCCCCCCCCCC/C=C/[C@@H](O)[C@@H](N)COP(=O)(O)O [S1P, sphingosine-1-phosphate]
LPS-induced IL-23 mRNA [5]: neither phospho-FTY720 nor sphingosine-1-phosphate (S1P) prevented | LPS-induced IκBα degradation in the cytosol (immunoblot) ([5]; 5, 20 μM, LPS 5 ng/ml, 30 min): no opposing effects; also recorded: lacked this effect | LPS-induced nuclear accumulation of NFκB/RelA (immunoblot) ([5]; 5, 20 μM, LPS 5 ng/ml, 30 min): no opposing effects; also recorded: lacked this effect | S1PR1 mRNA ([5]; negative feedback of the signaling pathway): dose-dependent reduction | microglial activation: LPS-induced expression of IL-23, TNFα and iNOS mRNA ([5]; up to 10 μM): neither pFTY720 nor S1P (up to 10 μM) suppressed

CC(=O)Nc1nc(C)c(S(=O)(=O)Nc2ccc(C(O)(C(F)(F)F)C(F)(F)F)cc2)s1 [SR1001, N-(5-(N-(4-(1,1,1,3,3,3-hexafluoro-2-hydroxypropan-2-yl)phenyl)sulphamoyl)-4-methylthiazol-2-yl)acetamide]
brain atrophy (tissue loss) [6]: significantly reduced | induction of TH17 cells [6]: significantly reduced | microglial activation/TSPO marker [6]: significantly reduced

CCCCCCCCc1ccc(CCC(N)(CO)COP(=O)(O)O)cc1 (centres unmarked) [phospho-FTY720]
LPS-induced IL-23 mRNA [5]: neither phospho-FTY720 nor sphingosine-1-phosphate (S1P) prevented | LPS-induced COX2 expression ([5]; 2-10 μM, LPS 5 ng/ml): failed to prevent | LPS-induced iNOS expression ([5]; 2-10 μM, LPS 5 ng/ml): failed to prevent | microglial activation: LPS-induced expression of IL-23, TNFα and iNOS mRNA ([5]; up to 10 μM): neither pFTY720 nor S1P (up to 10 μM) suppressed | LPS-mediated induction of IL-1β ([5]; up to 10 μM, LPS 5 ng/ml): failed to attenuate | LPS-mediated induction of IL-6 ([5]; up to 10 μM, LPS 5 ng/ml): failed to attenuate | binding affinity to the S1PR2 isoform [7]: lacks binding affinity
